Reference: patent US9877962B2, “Piperazinyl derivatives for the treatment of cancer” (priority 2011, dated 2018)
Like-named read-outs stand apart in the source and are kept apart here.

What was measured:
Format in all cases: cell-based, human
[1] = system: HL-60; assay: Cytotoxicity test (ViaLight Plus cell proliferation) on HL-60; conditions: 72 hours' incubation, cell viability vs 0.5% DMSO control; for IC50: Homo sapiens, read-out: EC50 HL-60
From the text: (§1) The effects of the compounds of the invention on the proliferation of cancer cells were studied on different human cancer cell lines of different tissue origin (MCF-7: breast cancer, MCF-7/adr adriamycin-resistant breast cancer, HL-60: acute promyelocytic leukaemia, HL-60/R10: doxorubicin-resistant acute promyelocytic leukaemia, HT29: colon adenocarcinoma, Mia Paca2: pancreatic tumour, Panc-1: pancreatic exocrine tumour, SK-OV-3: cisplatin- and adriamycin resistant ovarian cancer). The cancer cells used for this study were incubated at 37° C. in the presence of one of the compounds of the invention added to the culture medium at different concentrations.
(§2) The cancer cell lines were obtained from ATCC (American Type Culture Collection) for MCF-7, from Hôpital de la Pitié Salpetrière for MCF-7/adr and from Oncodesign (Dijon, France) for HL-60, HL-60/R10, HT29, MiaPaCa2, Panc-1 and SK-OV-3. They were cultured in RPMI 1640 medium containing 2 mM L-Glutamine supplemented with 10% foetal calf serum (Lonza; Verviers, Belgium). All the cell lines were held in culture at 37° C. in a humid atmosphere containing 5% CO2. Cell proliferation was assessed using the ViaLight® Plus Assay Kit (Lonza; Verviers, Belgium) following the manufacturer's instructions. The cells were seeded in 96-well culture plates compatible with luminescence read-off (white plates with transparent bottom) in a proportion of 5 000 to 10 000 cells per well in 100 μl of culture medium. After a pre-incubation time of 24 hours at 37° C., the compounds of the invention dissolved in dimethylsulfoxide (DMSO) were individually added to each well in a proportion of 0.5 μl per well. After 72 hours' incubation at 37° C. in a humid atmosphere containing 5% CO2, 50 μl of lysis buffer were added to each well and 15 minutes later 100 μl of ATP measuring agent were added. The plates were read under a luminometer to evaluate cell viability. The data obtained was processed by computer to obtain the EC50 value i.e. the concentration value of each of the compounds which induces 50% cell viability compared with a control value (0.5% DMSO alone).

[2] = system: HL-60/R10; assay: Cytotoxicity test (ViaLight Plus cell proliferation) on HL-60/R10; conditions: doxorubicin-resistant line, 72 hours' incubation, cell viability vs 0.5% DMSO control, read-out: EC50 HL60/R10; for IC50: Homo sapiens
From the text: as §1, §2

[3] = system: MCF-7/adr; assay: Cytotoxicity test (ViaLight Plus cell proliferation) on MCF-7/adr; conditions: adriamycin-resistant line, 72 hours' incubation, cell viability vs 0.5% DMSO control
From the text: as §1, §2

Question: Which results are given for `Cc1cc(CCC(C)(C)C)ccc1N(C(=O)CCl)C(C(=O)N1CCNC(C(C)C)C1)c1ccc(F)cc1` (single isomer, unassigned; dia1) [I-25 dia1]?
Answer: EC50 [1]: 1120 nM; EC50 [2]: 43 nM

Question: What does the source list for `Cc1cc(Oc2ccccc2)ccc1N(C(=O)CCl)C(C(=O)N1CCN[C@@H](C(C)C)C1)c1cccs1` (single isomer, unassigned; dia1) [I-46 dia1]?
Answer: EC50 [3]: 544 nM; EC50 [2]: 318 nM

Question: For `Cc1cc(Oc2ccccc2)ccc1N(C(=O)CCl)C(C(=O)N1CCN[C@@H](CC(C)C)C1)c1cccs1` (single isomer, unassigned; dia1) [I-47 dia1], which EC50 [1] is on record?
Answer: 936 nM

Question: What about the EC50 [2] of the same compound?
Answer: 54 nM

Question: `CC(C)[C@H]1CN(C(=O)C(c2cccs2)N(C(=O)CCl)c2cccc(C(F)(F)F)c2)CCN1` (single isomer, unassigned; dia1) [I-50 dia1] was tested. Which EC50 [1] did it give?
Answer: 2100 nM

Question: What about the EC50 [2] of the same compound?
Answer: 259 nM

Question: What does the source list for `CC(C)C[C@H]1CN(C(=O)C(c2cccs2)N(C(=O)CCl)c2ccc(Oc3ccccc3)cc2)CCN1` (single isomer, unassigned; dia1) [I-51 dia1]?
Answer: EC50 [1]: 145 nM; EC50 [2]: 96 nM

Question: For `Cc1cc(Cl)ccc1N(C(=O)CCl)C(C(=O)N1CCN[C@@H](C(C)C)C1)c1cccs1` (single isomer, unassigned; dia1) [I-52 dia1], which EC50 [2] is on record?
Answer: 194 nM

Question: With `Cc1cc(CCC(C)(C)C)ccc1N(C(=O)CCl)C(C(=O)N1CCNC(C(C)C)C1)c1ccc(F)cc1` (single isomer, unassigned; dia2) [I-25 dia2] as the compound, how does the EC50 [1] read?
Answer: 819 nM

Question: What about the EC50 [2] of the same compound?
Answer: 103 nM

Question: What does the source list for `Cc1cc(Oc2ccccc2)ccc1N(C(=O)CCl)C(C(=O)N1CCN[C@@H](CC(C)C)C1)c1cccs1` (single isomer, unassigned; dia2) [I-47 dia2]?
Answer: EC50 [1]: 849 nM; EC50 [2]: 8 nM

Question: `CC(C)C[C@H]1CN(C(=O)C(c2cccs2)N(C(=O)CCl)c2ccc(Oc3ccccc3)cc2)CCN1` (single isomer, unassigned; dia2) [I-51 dia2] was tested. Which EC50 [1] did it give?
Answer: 3 nM

Question: And the EC50 [2]?
Answer: 1 nM

Question: `Cc1cc(Cl)ccc1N(C(=O)CCl)C(C(=O)N1CCN[C@@H](C(C)C)C1)c1cccs1` (single isomer, unassigned; dia2) [I-52 dia2] was tested. Which EC50 [1] did it give?
Answer: 223 nM

Question: What about the EC50 [2] of the same compound?
Answer: 24 nM

Question: Which EC50 [1] does the source give for `Cc1cc(Oc2ccccc2)ccc1N(C(=O)CCl)C(C(=O)N1CCN(C(=O)OC(C)(C)C)C(C(=O)NCc2ccccc2)C1)c1cccs1` (single isomer, unassigned; dia2) [I-53 dia2] here?
Answer: 547 nM

Question: And the EC50 [2]?
Answer: 305 nM

Question: For `Cc1cc(CCC(C)(C)C)ccc1N(C(=O)CCl)C(C(=O)N1CCN[C@@H](C(C)C)C1)c1ccc(F)cc1` (stereo partly drawn) [Example I-23], which IC50 ([1]; HL-60, 72 h) is on record?
Answer: 559 nM

Question: And the IC50 ([2]; HL-60, 72 h)?
Answer: 12 nM

Question: How did the IC50 ([1]; HL-60, 72 h) turn out when `Cc1cc(CCC(C)(C)C)ccc1N(C(=O)CCl)C(C(=O)N1C[C@@H](C)N[C@@H](C)C1)c1ccc(F)cc1` (stereo partly drawn) [Example I-24] was run?
Answer: 626 nM

Question: What about the IC50 ([2]; HL-60, 72 h) of the same compound?
Answer: 15 nM

Question: With `CC1CN(C(=O)C(c2cccs2)N(C(=O)CCl)c2cccc(C(F)(F)F)c2)CC(C)N1C(=O)OC(C)(C)C` (stereo not drawn) [Example I-28] as the compound, how does the IC50 ([1]; HL-60, 72 h) read?
Answer: 623 nM

Question: What about the IC50 ([2]; HL-60, 72 h) of the same compound?
Answer: 206 nM

Question: Which results are given for `C[C@@H]1CN(C(=O)[C@H](c2cccs2)N(C(=O)CCl)c2ccc(Oc3ccccc3)cc2)C[C@H](C)N1` [Example I-44]?
Answer: EC50 [1]: 215 nM; EC50 [2]: 7 nM

Question: With `Cc1cc(Oc2ccccc2)ccc1N(C(=O)CCl)C(C(=O)N1CCNC(c2ccccc2)C1)c1cccs1` (stereo not drawn) [Example I-45] as the compound, how does the IC50 ([1]; HL-60, 72 h) read?
Answer: 2140 nM

Question: What about the IC50 ([2]; HL-60, 72 h) of the same compound?
Answer: 17 nM

Question: For `Cc1cc(Oc2ccccc2)ccc1N(C(=O)CCl)C(C(=O)N1CCNC(Cc2ccccc2)C1)c1cccs1` (stereo not drawn) [Example I-48], which IC50 ([1]; HL-60, 72 h) is on record?
Answer: 1990 nM

Question: And the IC50 ([2]; HL-60, 72 h)?
Answer: 10 nM

Question: Which IC50 ([1]; HL-60, 72 h) does the source give for `Cc1cc(Cl)ccc1N(C(=O)CCl)C(C(=O)N1C[C@@H](C)N[C@@H](C)C1)c1cccs1` (stereo partly drawn) [Example I-49] here?
Answer: 1170 nM

Question: And the IC50 ([2]; HL-60, 72 h)?
Answer: 321 nM

Question: Which results are given for `Cc1cc(Oc2ccccc2)ccc1N(C(=O)CCl)C(C(=O)N1CCNCC1)c1ccc(F)cc1` (stereo not drawn) [reference compound]?
Answer: IC50 ([1]; HL-60, 72 h): 1630 nM; IC50 ([2]; HL-60, 72 h): 226 nM

Question: What does the source list for `C[C@@H]1CNCCN1C(=O)C(c1cccs1)N(C(=O)CCl)c1ccc(Oc2ccccc2)cc1` (stereo partly drawn) [reference compound]?
Answer: IC50 ([1]; HL-60): 311 nM; IC50 ([2]; HL-60): 38 nM
